Source: patent publication US12239645B2, “Targeted dosing for the treatment of complement mediated disorders” (Achillion Pharmaceuticals, Inc., priority 2018, dated 2025)
Like-named read-outs stand apart in the source and are kept apart here.

Tests used:
[1] = Phase I single ascending dose (SAD) study: plasma and urine pharmacokinetics; type: in vivo, human; details: for Aeu(%), GM / Aeu(%), Mean: percentage of dose
Protocol: A single ascending dose (SAD) study was the first-in-human study of Compound 1. […] Secondary objectives included evaluation of the pharmacokinetic (PK) profile and the relationship between Compound 1 PK and pharmacodynamic (PD) characteristics, that is, the inhibition of complement alternative pathway (AP) activity (PK/PD).
[…] were dosed and evaluated in 4 dose groups with ten subjects receiving placebo (Table 1). The first dose group had 6 active and 6 placebo subjects; subsequent groups had 6 active and 2 placebo subjects each. Each group was followed for 28 days after dosing. All subjects were monitored for safety through the last scheduled visit at Day 28. Blood and urine samples were collected at predefined time points from Days 1 to 4 to determine plasma and urine concentrations of Compound 1 and from Days 1 to 7 to determine complement related activities. Results of serum AP activity measured by AP Wieslab assay as well as plasma Bb, factor D level and several other PD biomarkers were determined.
For the 18 subjects comprising the Groups 1-3 SAD PK population, a total of 306 plasma samples (17 samples from each subject collected pre-dose and 0.5, 1, 1.5, 2, 2.5, 3, 4, 6, 8, 10, 12, 16, 24 [Day 2], 48 [Day 3], 72 [Day 4], and 144 [Day 7] hours post-dose) were available for PK determination in plasma.
Single ascending doses of Compound 1 were evaluated to determine plasma and urine PK parameters over the dose range of 40 mg to 120 mg studied. Summary statistics for plasma and urine Compound 1 concentration at each nominal sampling time point are presented by randomized treatment group in Table 2.

[2] = MAD study, two additional single-dose cohorts: pharmacokinetics; type: in vivo, human; details: for AUC(0-t) / Cmax / Tmax / AUC(0-inf): human, plasma, oral; for AUC(0-inf): read-out: AUC0-inf, Mean
Protocol: A multiple ascending dose (MAD) study of Compound 1 with two additional single-dose cohorts was also completed. […] Secondary objectives included evaluation of the pharmacokinetic (PK) profile and the relationship between Compound 1 PK and pharmacodynamic (PD) characteristics, that is, the inhibition of complement alternative pathway (AP) activity (PK/PD). In the MAD study, multiple-dose pharmacokinetics and pharmacodynamics of Compound 1 were evaluated in four dose groups administered Compound 1 (40, 80, 120 and 200 mg BID) in the fasted state for 14-days (Table 3). Eight subjects received active drug in each group; eight subjects received placebo in the first dose group (40 mg) and two subjects received placebo in each of the other three dose groups. Two additional cohorts were administered Compound 1 at single doses of 240 mg (fasted subjects) and 120 mg (fed subjects) (Table 3). The two single-dose cohorts each comprised six subjects receiving active drug and two subjects receiving placebo. Plasma and serum samples for PK and PD assessment were collected on selected days prior to dosing (at local troughs), and on days 1, 7, and 14 at 0.5-hour to 2-hour intervals for more detailed assessment.

[3] = 40 mg single dose, fasted, plasma
[4] = 40 mg single dose, fasted, urine
[5] = 80 mg single dose, fasted, plasma
[6] = 80 mg single dose, fasted, urine
[7] = 120 mg single dose, fasted, plasma
[8] = 120 mg single dose, fasted, urine
[9] = 120 mg single dose, fed moderate fat meal
[10] = 120 mg single dose, moderate-fat meal vs fasted (SAD)

Maximum mean plasma concentration ([1]; 40 mg single dose): 78.03 ± 19.65 ng/mL
CL/F, GM [1, 3]: 81.26 L/h
CL/F, Mean [1, 3]: 84.27 L/h
t½term, GM [1, 3]: 12.51 h
t½term, Mean [1, 3]: 13.08 h
Aeu, GM [1, 4]: 0.0671 mg
Aeu, Mean [1, 4]: 0.0749 mg
Aeu(%), GM [1, 4]: 0.17%
Aeu(%), Mean [1, 4]: 0.19%
Maximum mean plasma concentration ([1]; 80 mg single dose): 224.05 ± 108.27 ng/mL
CL/F, GM [1, 5]: 63.52 L/h
CL/F, Mean [1, 5]: 70.25 L/h
t½term, GM [1, 5]: 9.80 h
t½term, Mean [1, 5]: 9.92 h
Aeu, GM [1, 6]: 0.2045 mg
Aeu, Mean [1, 6]: 0.3058 mg
Aeu(%), GM [1, 6]: 0.26%
Aeu(%), Mean [1, 6]: 0.38%
Maximum mean plasma concentration ([1]; 120 mg single dose): 282.83 ± 89.15 ng/mL
CL/F, GM [1, 7]: 71.87 L/h
CL/F, Mean [1, 7]: 73.25 L/h
t½term, GM [1, 7]: 12.67 h
t½term, Mean [1, 7]: 13.90 h
Aeu, GM [1, 8]: 0.2683 mg
Aeu, Mean [1, 8]: 0.2913 mg
Aeu(%), GM [1, 8]: 0.22%
Aeu(%), Mean [1, 8]: 0.24%
last post-dose time point with detected plasma concentration ([1]; all SAD dose groups): 72 h
CL renal ([1]; human, plasma and urine, oral, 40 mg to 120 mg single dose, read-out: Renal clearance, geometric mean, range over dose groups): 2.67 to 3.17 mL/min
AUC(0-inf) ([1]; human, plasma, oral, 40 mg, 40 mg single dose, fasted, plasma, read-out: AUC0-inf, GM): 492 ng·h/mL
AUC(0-inf) ([1]; human, plasma, oral, 40 mg, 40 mg single dose, fasted, plasma, read-out: AUC0-inf, Mean): 514 ng·h/mL
Cmax ([1]; human, plasma, oral, 40 mg, 40 mg single dose, fasted, plasma, read-out: Cmax, GM): 85.3 ng/mL
Cmax ([1]; human, plasma, oral, 40 mg, 40 mg single dose, fasted, plasma, read-out: Cmax, Mean): 88.6 ng/mL
Cmax ([1]; human, plasma, oral, 40 mg, 40 mg single dose, fasted, plasma, read-out: Cmax, Median): 79.1 ng/mL
Vd/F ([1]; human, plasma, oral, 40 mg, 40 mg single dose, fasted, plasma, read-out: Vz/F, GM): 1470 L
Vd/F ([1]; human, plasma, oral, 40 mg, 40 mg single dose, fasted, plasma, read-out: Vz/F, Mean): 1500 L
Tmax ([1]; human, plasma, oral, 40 mg, 40 mg single dose, fasted, plasma, read-out: tmax, GM): 1.65 h
Tmax ([1]; human, plasma, oral, 40 mg, 40 mg single dose, fasted, plasma, read-out: tmax, Mean): 1.75 h
Tmax ([1]; human, plasma, oral, 40 mg, 40 mg single dose, fasted, plasma, read-out: tmax, Median): 1.5 h
AUC(0-inf) ([1]; human, plasma, oral, 80 mg, 80 mg single dose, fasted, plasma, read-out: AUC0-inf, GM): 1260 ng·h/mL
AUC(0-inf) ([1]; human, plasma, oral, 80 mg, 80 mg single dose, fasted, plasma, read-out: AUC0-inf, Mean): 1390 ng·h/mL
Cmax ([1]; human, plasma, oral, 80 mg, 80 mg single dose, fasted, plasma, read-out: Cmax, GM): 232 ng/mL
Cmax ([1]; human, plasma, oral, 80 mg, 80 mg single dose, fasted, plasma, read-out: Cmax, Mean): 253 ng/mL
Cmax ([1]; human, plasma, oral, 80 mg, 80 mg single dose, fasted, plasma, read-out: Cmax, Median): 247 ng/mL
Vd/F ([1]; human, plasma, oral, 80 mg, 80 mg single dose, fasted, plasma, read-out: Vz/F, GM): 899 L
Vd/F ([1]; human, plasma, oral, 80 mg, 80 mg single dose, fasted, plasma, read-out: Vz/F, Mean): 992 L
Tmax ([1]; human, plasma, oral, 80 mg, 80 mg single dose, fasted, plasma, read-out: tmax, GM): 1.85 h
Tmax ([1]; human, plasma, oral, 80 mg, 80 mg single dose, fasted, plasma, read-out: tmax, Mean): 2 h
Tmax ([1]; human, plasma, oral, 80 mg, 80 mg single dose, fasted, plasma, read-out: tmax, Median): 1.75 h
AUC(0-inf) ([1]; human, plasma, oral, 120 mg, 120 mg single dose, fasted, plasma, read-out: AUC0-inf, GM): 1670 ng·h/mL
AUC(0-inf) ([1]; human, plasma, oral, 120 mg, 120 mg single dose, fasted, plasma, read-out: AUC0-inf, Mean): 1710 ng·h/mL
Cmax ([1]; human, plasma, oral, 120 mg, 120 mg single dose, fasted, plasma, read-out: Cmax, GM): 303 ng/mL
Cmax ([1]; human, plasma, oral, 120 mg, 120 mg single dose, fasted, plasma, read-out: Cmax, Mean): 316 ng/mL
Cmax ([1]; human, plasma, oral, 120 mg, 120 mg single dose, fasted, plasma, read-out: Cmax, Median): 260 ng/mL
Vd/F ([1]; human, plasma, oral, 120 mg, 120 mg single dose, fasted, plasma, read-out: Vz/F, GM): 1310 L
Vd/F ([1]; human, plasma, oral, 120 mg, 120 mg single dose, fasted, plasma, read-out: Vz/F, Mean): 1460 L
Tmax ([1]; human, plasma, oral, 120 mg, 120 mg single dose, fasted, plasma, read-out: tmax, GM): 2.54 h
Tmax ([1]; human, plasma, oral, 120 mg, 120 mg single dose, fasted, plasma, read-out: tmax, Mean): 2.58 h
Tmax ([1]; human, plasma, oral, 120 mg, 120 mg single dose, fasted, plasma, read-out: tmax, Median): 2.75 h
half-life ([1]; human, plasma, oral, 40 mg to 120 mg single dose, read-out: Mean terminal elimination half-life (t1/2 term), range over dose groups): 9.92 to 13.9 h
Tmax ([1]; human, plasma, oral, 40 mg to 120 mg single dose, read-out: Median tmax, range over dose groups): 1.5 to 2.75 h
CL renal ([1]; human, urine, oral, 40 mg, 40 mg single dose, fasted, urine, read-out: CLr, GM (converted)): 2.67 mL/min
CL renal ([1]; human, urine, oral, 40 mg, 40 mg single dose, fasted, urine, read-out: CLr, Mean (converted)): 2.67 mL/min
CL renal ([1]; human, urine, oral, 80 mg, 80 mg single dose, fasted, urine, read-out: CLr, GM (converted)): 3 mL/min
CL renal ([1]; human, urine, oral, 80 mg, 80 mg single dose, fasted, urine, read-out: CLr, Mean (converted)): 3.5 mL/min
CL renal ([1]; human, urine, oral, 120 mg, 120 mg single dose, fasted, urine, read-out: CLr, GM (converted)): 3.17 mL/min
CL renal ([1]; human, urine, oral, 120 mg, 120 mg single dose, fasted, urine, read-out: CLr, Mean (converted)): 3.5 mL/min
t½term, Mean [2, 9]: 9.39 h
mean AUC lower in the fed state vs fasted [2, 10]: 00.8%
mean Cmax lower in the fed state vs fasted [2, 10]: 2.2%
t½term, Mean ([2]; 240 mg single dose, fasted): 9.33 h
AUC(0-t) ([2]; 120 mg, 120 mg single dose, fed moderate fat meal, read-out: AUC(0-12), Mean): 1250 ng·h/mL
AUC(0-t) ([2]; 120 mg, 120 mg single dose, fed moderate fat meal, read-out: AUC(0-72), Mean): 1490 ng·h/mL
AUC(0-t) ([2]; 240 mg, 240 mg single dose, fasted, read-out: AUC(0-12), Mean): 2770 ng·h/mL
AUC(0-t) ([2]; 240 mg, 240 mg single dose, fasted, read-out: AUC(0-72), Mean): 3510 ng·h/mL
Cmax [2, 9]: 309 ng/mL
Tmax [2, 9]: 2.83 h
AUC(0-inf) [2, 9]: 1490 ng·h/mL
Cmax ([2]; 240 mg single dose, fasted): 594 ng/mL
Tmax ([2]; 240 mg single dose, fasted): 2.67 h
AUC(0-inf) ([2]; 240 mg single dose, fasted): 3520 ng·h/mL
SMILES: CC(=O)c1nn(CC(=O)N2[C@H](C(=O)Nc3nc(Br)ccc3C)C[C@@]3(C)C[C@@H]23)c2ccc(-c3cnc(C)nc3)cc12 [Compound 1, (1R,3S,5R)-2-(2-(3-acetyl-5-(2-methylpyrimidin-5-yl)-1H-indazol-1-yl)acetyl)-N-(6-bromo-3-methylpyridin-2-yl)-5-methyl-2-azabicyclo[3.1.0]hexane-3-carboxamide]
